Reference: patent US20250114387A1, “PHARMACEUTICAL COMPOSITION COMPRISING ENAVOGLIFLOZIN FOR PREVENTING OR TREATING OBESITY IN CANINE ANIMALS” (DAEWOONG PHARMACEUTICAL CO., LTD., priority 2022, published 2025)

What was measured:
obese dogs [1] = test: Clinical trial in obese dogs: serum insulin concentration (ELISA); format: in vivo; details: for Insulin: serum
Experimental: (§1) A total of 20 dogs were selected and divided into 4 groups with 5 dogs in each group: a normal obese control (OC); hereinafter, referred to as a control (OC)), an enavogliflozin 0.2-administered group, an enavogliflozin 0.5-administered group, and an enavogliflozin 1-administered group. The control was fed regular feed, and the enavogliflozin-administered groups were fed regular feed supplemented with enavogliflozin at doses of 0.2, 0.5, or 1 mg/kg, respectively. The feed was supplemented with enavogliflozin once a day for 8 weeks and given orally.
Serum insulin concentrations were measured 2, 4, 6, 8, and 10 weeks after the start of enavogliflozin administration using a Quantikine Canine Insulin ELISA kit (Catalog no. DINS00, R&D Systems, Minneapolis, MN, USA) according to the manufacturer's protocol. Urine biochemical parameters were evaluated using urine test strips 2, 4, 6, and 10 weeks after the start of enavogliflozin administration, and urinary glucose (GLU) excretion was measured using UriSCAN® Strip (YD Diagnostics Corp., Yong-in, Korea).

obese dogs [2] = test: Clinical trial in obese dogs: urine test strips, urinary glucose excretion; format: in vivo
Experimental: as §1
Serum insulin concentrations were measured 2, 4, 6, 8, and 10 weeks after the start of enavogliflozin administration using a Quantikine Canine Insulin ELISA kit (Catalog no. DINS00, R&D Systems, Minneapolis, MN, USA) according to the manufacturer's protocol. […]

[3] = 0.2 mg/kg once a day oral for 8 weeks, 10 weeks
[4] = 0.2 mg/kg once a day oral, 2 weeks
[5] = 0.2 mg/kg once a day oral, 4 weeks
[6] = 0.2 mg/kg once a day oral, 6 weeks
[7] = 0.2 mg/kg once a day oral, 8 weeks
[8] = 0.5 mg/kg once a day oral for 8 weeks, 10 weeks
[9] = 0.5 mg/kg once a day oral, 2 weeks
[10] = 0.5 mg/kg once a day oral, 4 weeks
[11] = 0.5 mg/kg once a day oral, 6 weeks
[12] = 0.5 mg/kg once a day oral, 8 weeks
[13] = 1 mg/kg once a day oral for 8 weeks, 10 weeks
[14] = 1 mg/kg once a day oral, 2 weeks
[15] = 1 mg/kg once a day oral, 4 weeks
[16] = 1 mg/kg once a day oral, 6 weeks
[17] = 1 mg/kg once a day oral, 8 weeks

## OC[C@H]1O[C@@H](c2cc(Cc3ccc(C4CC4)cc3)c(Cl)c3c2CCO3)[C@H](O)[C@@H](O)[C@@H]1O [Enavogliflozin, enavogliflozin]
Obese dogs [1]; 0.5 mg/kg
  insulin concentration compared to the control (OC): significantly lower
Obese dogs [1]; all administration groups
  serum insulin concentration compared to the control (OC): decreased compared to the control (OC)
Obese dogs [1]; 0.2 mg/kg once a day oral for 8 weeks
  Insulin: 126.60 ± 15.45 ng/mL
Obese dogs [1]; 0.5 mg/kg once a day oral for 8 weeks
  Insulin: 99.82 ± 18.48 ng/mL
Obese dogs [1]; 1 mg/kg once a day oral for 8 weeks
  Insulin: 110.75 ± 21.96 ng/mL
Obese dogs [2]; [3]
  Urine test - Glucose detection: number of dogs with grade +++, 3: 2
  Urine test - Glucose detection: number of dogs with grade +++, 4: 1
  Urine test - Glucose detection: number of dogs with grade ++, 2: 1
  Urine test - Glucose detection: number of dogs with grade +, 1: 1
  Urine test - Glucose detection: number of dogs with grade −, 0: 0
Obese dogs [2]; [4]
  Urine test - Glucose detection: number of dogs with grade +++, 3: 1
  Urine test - Glucose detection: number of dogs with grade +++, 4: 1
  Urine test - Glucose detection: number of dogs with grade ++, 2: 0
  Urine test - Glucose detection: number of dogs with grade +, 1: 3
  Urine test - Glucose detection: number of dogs with grade −, 0: 0
Obese dogs [2]; [5]
  Urine test - Glucose detection: number of dogs with grade +++, 3: 1
  Urine test - Glucose detection: number of dogs with grade +++, 4: 1
  Urine test - Glucose detection: number of dogs with grade ++, 2: 1
  Urine test - Glucose detection: number of dogs with grade +, 1: 2
  Urine test - Glucose detection: number of dogs with grade −, 0: 0
Obese dogs [2]; [6]
  Urine test - Glucose detection: number of dogs with grade +++, 3: 1
  Urine test - Glucose detection: number of dogs with grade +++, 4: 1
  Urine test - Glucose detection: number of dogs with grade ++, 2: 0
  Urine test - Glucose detection: number of dogs with grade +, 1: 3
  Urine test - Glucose detection: number of dogs with grade −, 0: 0
Obese dogs [2]; [7]
  Urine test - Glucose detection: number of dogs with grade +++, 3: 1
  Urine test - Glucose detection: number of dogs with grade +++, 4: 1
  Urine test - Glucose detection: number of dogs with grade ++, 2: 2
  Urine test - Glucose detection: number of dogs with grade +, 1: 1
  Urine test - Glucose detection: number of dogs with grade −, 0: 0
Obese dogs [2]; [8]
  Urine test - Glucose detection: number of dogs with grade +++, 3: 1
  Urine test - Glucose detection: number of dogs with grade +++, 4: 1
  Urine test - Glucose detection: number of dogs with grade ++, 2: 1
  Urine test - Glucose detection: number of dogs with grade +, 1: 1
  Urine test - Glucose detection: number of dogs with grade −, 0: 1
Obese dogs [2]; [9]
  Urine test - Glucose detection: number of dogs with grade +++, 3: 0
  Urine test - Glucose detection: number of dogs with grade +++, 4: 3
  Urine test - Glucose detection: number of dogs with grade ++, 2: 1
  Urine test - Glucose detection: number of dogs with grade +, 1: 1
  Urine test - Glucose detection: number of dogs with grade −, 0: 0
Obese dogs [2]; [10]
  Urine test - Glucose detection: number of dogs with grade +++, 3: 0
  Urine test - Glucose detection: number of dogs with grade +++, 4: 5
  Urine test - Glucose detection: number of dogs with grade ++, 2: 0
  Urine test - Glucose detection: number of dogs with grade +, 1: 0
  Urine test - Glucose detection: number of dogs with grade −, 0: 0
Obese dogs [2]; [11]
  Urine test - Glucose detection: number of dogs with grade +++, 3: 0
  Urine test - Glucose detection: number of dogs with grade +++, 4: 5
  Urine test - Glucose detection: number of dogs with grade ++, 2: 0
  Urine test - Glucose detection: number of dogs with grade +, 1: 0
  Urine test - Glucose detection: number of dogs with grade −, 0: 0
Obese dogs [2]; [12]
  Urine test - Glucose detection: number of dogs with grade +++, 3: 0
  Urine test - Glucose detection: number of dogs with grade +++, 4: 4
  Urine test - Glucose detection: number of dogs with grade ++, 2: 1
  Urine test - Glucose detection: number of dogs with grade +, 1: 0
  Urine test - Glucose detection: number of dogs with grade −, 0: 0
Obese dogs [2]; [13]
  Urine test - Glucose detection: number of dogs with grade +++, 3: 1
  Urine test - Glucose detection: number of dogs with grade +++, 4: 1
  Urine test - Glucose detection: number of dogs with grade ++, 2: 0
  Urine test - Glucose detection: number of dogs with grade +, 1: 0
  Urine test - Glucose detection: number of dogs with grade −, 0: 3
Obese dogs [2]; [14]
  Urine test - Glucose detection: number of dogs with grade +++, 3: 2
  Urine test - Glucose detection: number of dogs with grade +++, 4: 3
  Urine test - Glucose detection: number of dogs with grade ++, 2: 0
  Urine test - Glucose detection: number of dogs with grade +, 1: 0
  Urine test - Glucose detection: number of dogs with grade −, 0: 0
Obese dogs [2]; [15]
  Urine test - Glucose detection: number of dogs with grade +++, 3: 0
  Urine test - Glucose detection: number of dogs with grade +++, 4: 5
  Urine test - Glucose detection: number of dogs with grade ++, 2: 0
  Urine test - Glucose detection: number of dogs with grade +, 1: 0
  Urine test - Glucose detection: number of dogs with grade −, 0: 0
Obese dogs [2]; [16]
  Urine test - Glucose detection: number of dogs with grade +++, 3: 0
  Urine test - Glucose detection: number of dogs with grade +++, 4: 5
  Urine test - Glucose detection: number of dogs with grade ++, 2: 0
  Urine test - Glucose detection: number of dogs with grade +, 1: 0
  Urine test - Glucose detection: number of dogs with grade −, 0: 0
Obese dogs [2]; [17]
  Urine test - Glucose detection: number of dogs with grade +++, 3: 1
  Urine test - Glucose detection: number of dogs with grade +++, 4: 5
  Urine test - Glucose detection: number of dogs with grade ++, 2: 0
  Urine test - Glucose detection: number of dogs with grade +, 1: 0
  Urine test - Glucose detection: number of dogs with grade −, 0: 0
Obese dogs [2]; enavogliflozin-administered groups, particularly 0.2 mg/kg
  Urinary glucose (GLU) excretion: higher
